Calls of active or inactive are those of the source. No cut-off for these calls is given here. Bounds are passed on as bounds.

In series [1] the test system is unidentified. Put plainly: Stabilization of duplex DNA T-loop (unknown origin) 5'-FAM-dTATAGCTATA-HEG-TATAGCTATA-TAMRA-3' assessed as melting temperature at 1 uM by FRET assay.
Series [2] in a line: Cytotoxicity against human RCC4 cells assessed as growth inhibition after 96 hrs by SRB assay. The format is functional, cell-based. The following applies: RCC4, 96 h. (In general: Sulforhodamine B stains cellular protein and so reports cell mass.)
Series [3] concerns unidentified. Nature of the series: Stabilization of HSP90a promoter sequence 5'-FAM-d(GGGCCAAAGGGAAGGGGTGGG)-TAMRA-3' (unknown origin) assessed as melting temperature at 1 uM by FRET assay.
Series [4] deals with MIA PaCa-2. Nature of the series: Cytotoxicity against human MIAPaCa2 cells assessed as growth inhibition after 96 hrs by SRB assay. Format: functional, cell-based. The following applies: MIA PaCa-2, 96 h.
Series [5] relates to unidentified. Put plainly: Stabilization of HSP90b promoter sequence 5'-FAM-d(GGGCGGGCCAAAGGGAAGGGG)-TAMRA-3' (unknown origin) assessed as melting temperature at 1 uM by FRET assay.
For series [6], the species on record is Homo sapiens. Put plainly: Stabilization of human telomeric G-quadruplex DNA sequence 5'-FAM-d(GGG[TTAGGG]3)-TAMRA-3' assessed as melting temperature at 1 uM by FRET assay.
The test system of series [7] is MIA PaCa-2. Nature of the series: Inhibition of telomerase activity in human MIAPaCa2 cells assessed as telomere elongation up to 10 uM after 7 days by TRAP-LIG assay. The format is cell-based.
The test system of series [8] is A549. Nature of the series: Cytotoxicity against human A549 cells assessed as growth inhibition after 96 hrs by SRB assay. The format is functional, cell-based. Conditions: A549, 96 h.
Series [9] relates to MCF7. Nature of the series: Cytotoxicity against human MCF7 cells assessed as growth inhibition after 96 hrs by SRB assay. The format is functional, cell-based. The following applies: MCF7, 96 h.
For series [10], the system named is WI-38. Nature of the series: Cytotoxicity against human WI38 cells assessed as growth inhibition after 96 hrs by SRB assay. The format is cell-based. Conditions: WI-38, 96 h.
Series [11] concerns 786-0. Nature of the series: Cytotoxicity against human 786-0 cells assessed as growth inhibition after 96 hrs by SRB assay. The following applies: 786-0, 96 h. The format is functional, cell-based.
Series [12] deals with MIA PaCa-2. Put plainly: Induction of senescence in human MIAPaCa2 cells at 3.3 to 6.6 nM after 7 days by beta-galactosidase assay relative to vehicle-treated control. Format: functional.
Series [13] can be described thus: Selectivity ratio of IC50 for human WI-38 cells to IC50 for human 786-0 cells. The format is ADME, cell-based. The following applies: WI-38 cells versus 786-0 cells, read-out: Ratio IC50.
Series [14] relates to MIA PaCa-2. Put plainly: Induction of senescence in human MIAPaCa2 cells at 25 to 50 nM after 7 days by beta-galactosidase assay relative to vehicle-treated control. Format: functional, cell-based.
The subject of series [15] is MIA PaCa-2. Nature of the series: Inhibition of telomerase activity in human MIAPaCa2 cells assessed as telomere elongation at 25 to 50 nM by TRAP-LIG assay. The format is cell-based.

By ΔTm is commonly meant the change in melting temperature against a reference sample. What is called IC50 is the concentration at which inhibition is half-maximal. Turning to `CN1CCN(CCNc2cc3c4c(c(NCCN5CCN(C)CC5)cc5c4c2C(=O)N(CCCN2CCOCC2)C5=O)C(=O)N(CCCN2CCOCC2)C3=O)CC1`, the shift in melting temperature (ΔTm) in series [1] is 8.1 °C; in series [3] it was 31.9 °C; in series [5], 31.1 °C; in [6] it was 27.8 °C. Besides, the half-maximal inhibitory concentration (IC50) in series [2] was 280 nM; in [4] it was 10 nM; in series [8], under 10 nM; in series [9], 30 nM; in [10] it was 2460 nM. Moreover, the inhibition entry in [7] was “inactive”.

Consider `CN1CCN(CCCNc2cc3c4c(c(NCCCN5CCN(C)CC5)cc5c4c2C(=O)N(CC2CCCO2)C5=O)C(=O)N(CC2CCCO2)C3=O)CC1` (racemic), for which the thermal shift (ΔTm) in series [1] turned out to be 0.2 °C; in series [3], 27.1 °C; in [5] it was 21 °C; in [6], 22.7 °C. For the same compound, the IC50 is over 10000 nM in [11]; over 10000 nM in [2]; 5650 nM in series [4]; 5570 nM in [8]; over 10000 nM in [9]; over 10000 nM in series [10]. Moreover, the inhibition result in [7] was “inactive”.

On to `COCCCN1C(=O)c2cc(NCCCN3CCN(C)CC3)c3c4c(cc(NCCCN5CCN(C)CC5)c(c24)C1=O)C(=O)N(CCCOC)C3=O`, for which the thermal shift (ΔTm) stood at 0 °C in series [1], 29 °C in [3], 23.8 °C in series [5] and 0.5 °C in [6]. For the same compound, the IC50 amounted to 7170 nM in series [11]; 10500 nM in series [2]; 2790 nM in series [4]; 2540 nM in series [8]; 5620 nM in series [9]; 3320 nM in [10]. In addition, the inhibition result in [7] was “inactive”.

Turning to `CN1CCN(CCNc2cc3c4c(c(NCCN5CCN(C)CC5)cc5c4c2C(=O)N(CCN2CCOCC2)C5=O)C(=O)N(CCN2CCOCC2)C3=O)CC1`, the ΔTm in series [1] was determined as 1.7 °C; in series [3] it was 30.6 °C; in series [5], 27.6 °C; in series [6], 24.7 °C. For the same compound, the IC50 came out at 1480 nM in [11]; 5100 nM in series [2]; 4930 nM in series [8]; 180 nM in series [9]; 1170 nM in series [10].

Take `CN1CCN(CCCNc2cc3c4c(c(NCCCN5CCN(C)CC5)cc5c4c2C(=O)N(CCN2CCOCC2)C5=O)C(=O)N(CCN2CCOCC2)C3=O)CC1`: the thermal shift (ΔTm) in [1] came out at 0.8 °C; in [3], 33.9 °C; in series [5], 29.1 °C; in [6], 27 °C. In addition, the half-maximal inhibitory concentration (IC50) in [11] is 630 nM; in series [2] it was 1750 nM; in series [4] it was 40 nM; in series [8] it was 1550 nM; in series [9], 170 nM; in series [10], 610 nM.

As to `CN1CCN(CCCNc2cc3c4c(c(NCCCN5CCN(C)CC5)cc5c4c2C(=O)N(Cc2ccco2)C5=O)C(=O)N(Cc2ccco2)C3=O)CC1`, the ΔTm in [1] was determined as 0.3 °C; in series [3], 0.9 °C; in series [5] it was 1.1 °C; in series [6], 0.2 °C. The IC50 was determined as 1100 nM in [11]; 3110 nM in [2]; 2830 nM in [4]; 2410 nM in series [8]; 2610 nM in series [9]; 6840 nM in series [10]. In addition, the Activity in series [12] is on record as 50%.

Regarding `CN1CCN(CCCNc2cc3c4c(c(NCCCN5CCN(C)CC5)cc5c4c2C(=O)N(CC2CCOCC2)C5=O)C(=O)N(CC2CCOCC2)C3=O)CC1`, the selectivity ratio in series [13] was 10. The thermal shift (ΔTm) in [1] was 0.2 °C; in series [3] it was 0.7 °C; in series [5], 0.8 °C; in [6] it was 0.1 °C. Moreover, the IC50 in [11] was 1200 nM; in series [2], 8380 nM; in series [4] it was 2500 nM; in series [8] it was 2920 nM; in series [9] it was 3120 nM; in [10], 12600 nM.

As to `CN1CCN(CCCNc2cc3c4c(c(NCCCN5CCN(C)CC5)cc5c4c2C(=O)N(CCCN2CCN(C)CC2)C5=O)C(=O)N(CCCN2CCN(C)CC2)C3=O)CC1`, the ΔTm in series [1] is 1.3 °C; in series [3], 36.3 °C; in [5], 32 °C; in series [6], 28.3 °C. The result in [14] was Active. Also, the inhibition result in series [15] is “inactive”. Also, in [10], the IC50 came out at 9000 nM.

The values above are taken from ChEMBL document CHEMBL2331400, “Structure-based design and evaluation of naphthalene diimide G-quadruplex ligands as telomere targeting agents in pancreatic cancer cells” (J Med Chem, 2013).
